Data published in patent publication US20030119748A1 (Idun Pharmaceuticals, Inc., priority 1996, published 2003).

Biological target: T1, mICE (Mus musculus, UniProt P29452)
T1 sequence (P29452 119-402): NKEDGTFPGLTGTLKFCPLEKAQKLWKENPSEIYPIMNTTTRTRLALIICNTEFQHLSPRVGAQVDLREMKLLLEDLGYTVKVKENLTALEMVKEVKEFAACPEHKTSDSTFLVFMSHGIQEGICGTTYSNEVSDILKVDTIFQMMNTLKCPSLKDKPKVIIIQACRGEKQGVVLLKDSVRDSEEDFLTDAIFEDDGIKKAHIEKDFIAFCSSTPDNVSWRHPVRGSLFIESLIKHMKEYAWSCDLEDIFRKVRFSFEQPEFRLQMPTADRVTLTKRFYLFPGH
Assay: Dissociation constant Ki for irreversible inhibitors, continuous assay (Example 1B)
Assay type: biochemical
Details: compounds of Formula B and Formula C, procedure of Example 1B
From the text: B. Determination of the Dissociation Constant K1 and Irreversible Rate Constant k3 for Irreversible Inhibitors
For the irreversible inhibition of a ICE/ced-3 Family Protease enzyme with a competitive irreversible inhibitor; using the model represented by the following formulas: [drawing 4]
The product formation at time t may be expressed as: [drawing 5]
where E, I, EI, and E-I denote the active enzyme, inhibitor, non-covalent enzyme-inhibitor complex and covalent enzyme-inhibitor adduct, respectively. The K1 value is the overall dissociation constant of reversible binding steps, and k3 is the irreversible rate constant. The [S] and Ks values are the substrate concentration and the dissociation constant of the substrate bound to the enzyme, respectively. [E]^T is the total enzyme concentration.
The above equations were used to determine the K1 and k3 values of a given inhibitor bound to a ICE/ced-3 family protease. Thus, a continuous assay was run for sixty minutes at various concentrations of the inhibitor and the substrate. The assay was formulated essentially the same as described in Example 1A above, except that the reaction was initiated by adding the enzyme to the substrate-inhibitor mixture. The K1 and k3 values were obtained by simulating the product AMC formation as a function of time according to Equation 1. The reference compound for this assay was Cbz-ValAlaAsp-CH2F.

Ki [µM]	SMILES
< 1	Cc1c(C(=O)NC(C(=O)NC(CC(=O)O)C(=O)COc2ccccc2C(N)=O)C(C)C)n(C)c2ccccc12 (centres unmarked) [Example 74, N-(1,3-Dimethyl-indole-2-carbonyl)-Valinyl-3-amino-5-(2-aminocarbonyl-1-phenyl)oxy-4-oxo-pentanoic Acid]
< 1	CC(C)C(NC(=O)c1cc2ccccc2n1CCCc1ccccc1)C(=O)NC(CC(=O)O)C(=O)CF (centres unmarked) [Example 52, N-[(1-(3′-Phenylpropyl)Indole-2-Carbonyl)Valinyl]-3-Amino-4-Oxo-5-Fluoropentanoic Acid]
